Measured values as given in patent EP0367447A1, “Human epithelial transforming growth factor” (SMITHKLINE BEECHAM CORPORATION, priority 1988, dated 1990).
Ends that are not written are not given here.

Tested on: SW13 cells
Assay: growth of SW13 cells in soft agar (colony formation, Halper et al. 1983, modified)
Assay type: cell-based, human
Details: qualitative; whether the substance stimulates or mimics the growth response
Description: By the term 'anchorage independent growth of SW13 cells in soft agar in an autocrine fashion' is meant that the anchorage independent growth of the SW13 cells in soft agar is stimulated by a growth factor produced by the SW13 cells. Such 'anchorage independent growth of SW13 cells in soft agar is measured by the method described by Halper et al., Cancer Research, 43, 1972-1979 (1983). Preferably such method is modified so that the base and upper layers contain 0.5% and 0.3% agarose, respectively in DMEM, 10% fetal bovine serum, and 5000 cells are plated per 3 cm dish.
h-TGFe activity was measured using growth of SW13 cells in soft agar as described by Halper et al., Cancer Research, 43, 1972-1979 (1983), except that the base and upper layers contained 0.5% and 0.3% agarose, respectively in DMEM, 10% fetal bovine serum, and 5000 cells were plated per 3 cm dish.
Human milk was delipidated by ether extraction and acidified with TFA (0.5% final concentration). The acidified material was filtered through a 0.45 µm membrane and concentrated 5-fold using an Amicon YM5 membrane. The concentrate was dialyzed against 0.05% TFA, lyophilized, reconstituted at 10 times the original concentration and bioassayed on SW13 cells.
Samples of colon carcinoma tissue from patients along with two specimens of normal adjacent colon were obtained at surgery and snap frozen in liquid nitrogen. […]

Substance: bombesin
- colony formation by SW13 cells in the soft agar assay: not mimicked

Substance: gastrin: Synthetic human gastrin obtained from Sigma (QGPWLEEEEEAYGWMDF; ends and bridges not checked; UniProt P01350 76-92, looked up)
- colony formation by SW13 cells in the soft agar assay: not mimicked
